These results are taken from patent US4163784A, “Heterocyclylcarbonyl derivatives of urea, agents for dissolution of gallstones” (Pfizer Inc., priority 1978, dated 1979).

Data set [1] deals with male CD-1 mice. Nature of the data set: seven-day chronic toxicity test (hepatotoxicity). The class given is in vivo. The following applies: 500 mg./kg. daily orally in 0.1% methyl cellulose for 5 days.
The subject of data set [2] is male CD-1 mice. The data set can be described thus: acute toxicity, single intraperitoneal dose. It counts as in vivo. The following applies: 1000 mg./kg. single i.p. dose, 0.6% Tween 20, 10 mice per group, observed one week. The procedure:
The compounds were tested for acute toxicity in the following manner. Healthy male CD-1 mice (20-25 g.), 10 mice per group, received a single high dose of drug by intraperitoneal administration (1000 mg./kg., in 0.6% Tween 20, at a concentration of 70 mg./ml.). (Tween 20, polyoxyethylene sorbitan monolaurate, available from Atlas Chemical Industries, Inc.). The animals were observed continuously for at least two hours, again at 24 hours and daily thereafter for one week. Controls received vehicle alone, […]. and were asymptomatic throughout. The compounds tested and the widely varying mortality rates observed are tabulated below.

A further data set deals with rats. The data set can be described thus: oral administration at high dose to rats, toxicity. The class given is in vivo. The settings on record: same high dose as dogs (250 mg./kg.).
For a further data set, the system named is dogs. The data set can be described thus: oral administration at high dose to dogs, toxicity. It counts as in vivo. The following applies: 250 mg./kg.
Data set [3] deals with pathogenic cholelithiasis process. The settings on record: in man; cited from earlier work.

Consider `O=C(NCc1ccccc1)NC(=O)c1cccnc1Cl` [2-chloro-N-(benzylaminocarbonyl)nicotinamide], for which, in the data set on male CD-1 mice [1], the hepatotoxicity entry is “no hepatotoxicity”. The “Mortality Rate” value in the data set on male CD-1 mice [2] is 0/10.

Regarding `O=C(NC(=O)N1CC=CCC1)c1cccnc1` [3-pyridyl, 1-(1,2,3,6-tetrahydropyridyl)], the “Mortality Rate” value with male CD-1 mice [2] is recorded as 9/10.

Turning to `CCCCN(CCCC)C(=O)NC(=O)c1cccnc1` [3-pyridyl, N-(n-C 4 H9)2], the “Mortality Rate” value in the data set with male CD-1 mice [2] is on record as 10/10.

As for `CCCCN(CCCC)C(=O)NC(=O)c1cncs1` [5-thiazolyl, N-(n-C 4 H9)2], in the data set on male CD-1 mice [2], the “Mortality Rate” value is 4/10.

For `O=C(NC(=O)N1CC=CCC1)c1ccc(Cl)nc1` [6-Chloro-N-[1-(1,2,3,6-tetrahydropyridyl)carbonyl]nicotinamide], the “toxicological symptoms in rats” value with rats was “only moderate toxicological symptoms, including lethargy, diminished appetite and weight gain, and slight abnormalities in clinical chemistry”. Also, in the data set on dogs, the “pathological signs in dogs” value is “pathological signs suggestive of cardiac impairment”. The “toxic effects in dogs: death” value in the data set with dogs (ten times the projected efficacious dose) is given as “death of the dogs”. Also, the hepatotoxicity result with male CD-1 mice [1] is “produced hepatotoxicity”. Further, the “Mortality Rate” value with male CD-1 mice [2] was 0/10.

Consider `C[C@H](CCC(=O)O)[C@H]1CC[C@H]2[C@@H]3[C@H](O)C[C@@H]4C[C@H](O)CC[C@]4(C)[C@H]3CC[C@]12C` [chenodeoxycholic acid], for which the “prevention and reversal of the pathogenic cholelithiasis process” value in data set [3] was “prevention and even reversal of the pathogenic cholelithiasis process in man”.
